Consider 7 molecules from PubChem BioAssay (NCI).

Where “and” joins values, the source holds several entries; their conditions need not be identical. Identical values can stand only once.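 Compound exposure: 48 hours, 5 concentrations, 96-well plates. GI50 marks 50% less growth. TGI denotes the concentration required for complete inhibition of growth.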 Where only a bound is given, the exact number is not on record here.

What all share (experiment): NCI tumour cell line growth inhibition, 48 h
In assay [1] the test system is BT-549 breast.
In assay [2] the test system is EKVX NSCLC.
The subject of assay [3] is KM12 colon.
For assay [4], the system named is LOX IMVI melanoma.
For assay [5], the system named is M14 melanoma.
The test system of assay [6] is MALME-3M melanoma.
Assay [7] relates to MOLT-4 leukemia.
The test system of assay [8] is OVCAR-3 ovarian.
Assay [9] has as its system SK-OV-3 ovarian.
Assay [10] relates to SR leukemia.

`CN(C)c1ccc(N2Cc3ccccc3OC3=C2C(=O)c2c(O)ccc(O)c2C3=O)cn1`: the GI50 was 0.195 µM in [1]; 0.242 µM in assay [2]; 1.03 µM in assay [3]; 0.16 µM in [4]; 0.241 µM in assay [5]; 0.218 µM in assay [6]. Also, the GI50 in assay [7] is 0.112 µM; in assay [8] it was 0.233 µM; in assay [9], 3.05 µM; in assay [10] it was 0.127 µM. Besides, the TGI in assay [1] amounted to 0.507 µM; in [2], 1.21 µM; in assay [3], 3.08 µM; in assay [4] it was 0.48 µM; in [5], 0.713 µM; in assay [6], 0.495 µM. The TGI in [7] is 0.843 µM; in [8], 0.695 µM; in assay [9], 11.6 µM; in [10] it was > 100 µM.
Turning to `CCCCCCCCCCCCCC(=O)O[C@H]1CC[C@H](NC(=O)[C@H](OC)[C@H](O)[C@@H](O)[C@H](O)/C=C/C(C)C)C(=O)NC1`, the GI50 in assay [1] is 12.8 µM; in [8], 0.00435 µM; in assay [10] it was < 0.001 µM. The TGI is 51.2 µM in assay [1]; 36.8 µM and 23.4 µM in [2]; 1.19 µM and 7.64 µM in [3]; 9.4 µM and 1.15 µM in [4]; 0.345 µM and 0.556 µM and 0.129 µM in assay [5]; 7.97 µM and 38.7 µM in assay [6]. Also, the TGI in assay [7] was 16.9 µM and 14.5 µM; in assay [8], 10.5 µM and 17.9 µM; in assay [9], 51.2 µM and > 100 µM; in assay [10], 9.3 µM.
As to `COc1cc(-c2nc(Nc3nc4ccccc4[nH]3)nc(N)c2C#N)cc(OC)c1OC`, the GI50 in [1] is 0.857 µM; in [2] it was 41.4 µM; in assay [3], 0.714 µM; in [4], 6.37 µM; in assay [5], 2.34 µM; in [6], 21.7 µM. Further, the GI50 in assay [7] is 18.2 µM; in [8], 0.286 µM; in assay [9], 4.4 µM; in [10], 0.23 µM. For the same molecule, the TGI in assay [1] was 37.1 µM; in assay [2] it was > 100 µM; in assay [3] it was > 100 µM; in assay [4], 41.4 µM; in [5], 36.5 µM; in [6] it was > 80.1 µM. Moreover, the TGI was > 100 µM in assay [7], 3.61 µM in [8], 56.8 µM in assay [9] and > 100 µM in assay [10].
Regarding `COC(=O)Nc1nc2ccc(Oc3ccc(NC(=O)Nc4cccc(C(=O)O)c4)cc3)cc2[nH]1`, the GI50 in [1] was 14.8 µM; in assay [2] it was > 23 µM; in assay [3], 5.26 µM; in assay [4], > 14.6 µM; in assay [5], 6.75 µM; in assay [6], 7.92 µM. Further, the GI50 is 9.99 µM in assay [7], 4.41 µM in assay [8], 5.53 µM in assay [9] and 2.41 µM in [10]. Besides, the TGI in [1] is > 25 µM; in [2], > 25 µM; in assay [3], > 21.2 µM; in [4], > 25 µM; in [5], > 25 µM; in assay [6], > 25 µM. For the same molecule, the TGI in assay [7] was > 25 µM; in [8], 10.5 µM; in [9], 16.3 µM; in [10] it was > 25 µM.
For the molecule `Cn1cc(-c2nc(-c3c[nH]c4ncccc34)cs2)c2cc(F)ccc21`, the GI50 in [1] is 3.7 µM; in assay [2], 0.6 µM; in assay [3], 0.83 µM; in [4], 2.48 µM; in [5], 2.93 µM; in [6], 2.73 µM. Besides, the GI50 is 3.16 µM in assay [7], 3.02 µM in [8], 3.9 µM in assay [9] and 2.44 µM in [10]. For the same molecule, the TGI in assay [1] was 13.6 µM; in assay [2], 10.5 µM; in [3], 5.16 µM; in assay [4], 7.06 µM; in [5], 9.74 µM; in [6], 13.4 µM. Further, the TGI is 17 µM in assay [7], 8.25 µM in assay [8], 32.3 µM in assay [9] and 7.8 µM in assay [10].
As for `O=C1NN(c2ccc(C(=O)O)cc2)C(=O)/C1=C\c1ccc([N+](=O)[O-])o1`, the GI50 in [1] was > 100 µM; in assay [2], > 100 µM; in assay [3], > 100 µM; in [4], 11.1 µM; in assay [5] it was 28.6 µM; in [6], 20.7 µM. Besides, the GI50 was 33.4 µM in assay [7], 20.9 µM in [8], > 100 µM in [9] and 32.9 µM in assay [10]. Also, the TGI is > 100 µM in [1]; > 100 µM in assay [2]; > 100 µM in assay [3]; 31.2 µM in assay [4]; 88 µM in assay [5]; 41.2 µM in assay [6]. Also, the TGI is > 100 µM in [7], 42.3 µM in assay [8], > 100 µM in assay [9] and > 100 µM in [10].
Regarding `COc1ccc2c(c1)C(=O)/C(=C/c1cccc(OCC(=O)Nc3nc4c(s3)CCCC4)c1)O2`, the GI50 in assay [1] was 1.74 µM; in assay [2], 2.52 µM; in [3] it was 0.72 µM; in [4], 0.0248 µM; in assay [5], 1.81 µM; in [6] it was 0.8 µM. In addition, the GI50 was 0.93 µM in assay [7], 0.304 µM in assay [8], 11.8 µM in [9] and 0.156 µM in assay [10]. For the same molecule, the TGI was 4.49 µM in assay [1]; 8.73 µM in assay [2]; 4.09 µM in assay [3]; 0.066 µM in [4]; 4.51 µM in assay [5]; 2.86 µM in assay [6]. Moreover, the TGI in assay [7] was > 100 µM; in assay [8] it was 0.865 µM; in assay [9], 25.1 µM; in assay [10], 0.351 µM.
